Series [1] in a line: Human clinical trials of AERx-inhaled HCQ, pharmacokinetics blood sample analysis. The conditions noted are these: blood samples. It is filed as in vivo. The text has this: Hydroxychloroquine or HCQ, known as a therapeutic for asthma and other respiratory diseases (U.S. Pat. No. 6,572,858), and administered by the inhalation route, is characterized by unpleasant taste. Formulation of HCQ, either singularly, or in combination, using one or more of the methods described above increases the therapeutic benefit of inhaled HCQ to treat asthma and other respiratory diseases. […] Thus, it would be an improvement to develop a formulation that provides a sustained release of HCQ in the lung, prolonging interaction of HCQ with the desired receptors in the lung tissue. Formulation strategies include encapsulation in liposomes or use of polymeric microspheres or nanospheres that slowly degrade and release HCQ. Other formulation strategies outlined previously can also be envisioned for such a formulation.

The conditions of series [2]: oral administration; extensive clearance via first pass metabolism; cited from earlier work.
The conditions of series [3]: cited from earlier work.

SMILES strings stand for the structures.

Take `CCN(CCO)CCCC(C)Nc1ccnc2cc(Cl)ccc12` (centres unmarked) [HCQ, Hydroxychloroquine]: the “absorption from the lung” value in series [1] was “rapidly absorbed”.
As a reminder, the half-life is the time in which the quantity being followed falls by half. For the compound `CCCc1cc2c(s1)CN[C@@H]1CCc3cc(OC(C)=O)c(OC(C)=O)cc3[C@@H]21` [ABT-431], the oral bioavailability entry in series [2] was “less than 4%”. The half-life in series [3] (in vivo) was 2 to 3 h. Further, in series [3] (inhalation delivery), the absorption time entry is “less than 10 minutes” and the tolerability entry is given as “poor”.
